# Experimental data from BindingDB's records for patent US20260062376 (Research Triangle Institute, 2026).
# Target: Cannabinoid receptor 1 (Mus musculus, UniProt P47746)
# Experiment: [35S]GTPγS Binding Assay
# Procedure: For receptor signaling, membranes (10 μg protein) from either ICR mouse cerebellum mice (6-8 weeks old; Enviga International, Indianapolis, Indiana, United States of America) or HEK cells stably expressing CB1 receptor were preincubated in assay buffer for 10 min with 3 units/ml adenosine deaminase then incubated for 60 min at 30° C. with 30 μM GDP and 0.1 nM [35S]GTPγS (Perkin Elmer Life Sciences, Boston, Massachusetts, United States of America). Non-specific binding was determined by adding 30 μM unlabeled GTPγS.
# Cannabinoid receptor 1, sequence (P47746 whole entry): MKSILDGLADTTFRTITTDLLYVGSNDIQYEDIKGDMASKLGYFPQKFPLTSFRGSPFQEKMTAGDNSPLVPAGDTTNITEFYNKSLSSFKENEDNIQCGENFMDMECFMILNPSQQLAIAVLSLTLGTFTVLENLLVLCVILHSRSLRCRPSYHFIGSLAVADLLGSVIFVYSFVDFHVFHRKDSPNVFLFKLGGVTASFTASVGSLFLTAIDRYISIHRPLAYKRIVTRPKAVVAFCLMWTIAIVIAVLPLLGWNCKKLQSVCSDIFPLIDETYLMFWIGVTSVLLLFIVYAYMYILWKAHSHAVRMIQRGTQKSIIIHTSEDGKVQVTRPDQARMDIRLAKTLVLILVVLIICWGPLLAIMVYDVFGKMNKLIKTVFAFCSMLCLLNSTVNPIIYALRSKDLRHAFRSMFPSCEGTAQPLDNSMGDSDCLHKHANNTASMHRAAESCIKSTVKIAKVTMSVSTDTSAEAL
row,Structure (SMILES),IC50
1,"O=c1c(NCCc2cccs2)c(Nc2ccc(Cl)cc2)c1=O [US20260062376, Compound 39]",1350 nM
2,"O=c1c(NCCc2cccc(O)c2)c(Nc2ccc(Cl)cc2)c1=O [US20260062376, Compound 43]",4790 nM
3,"Cc1ccc(CCNc2c(Nc3ccc(Cl)cc3)c(=O)c2=O)cc1C [US20260062376, Compound 42]",331 nM
4,"O=c1c(NCCc2ccc(Br)cc2)c(Nc2ccc(Cl)cc2)c1=O [US20260062376, Compound 38]",871 nM
5,"Cc1ccc(CCNc2c(Nc3ccc(Cl)cc3)c(=O)c2=O)cc1 [US20260062376, Compound 15]",81.3 nM
6,"O=c1c(NCCc2cccc(Cl)c2)c(Nc2ccc(Cl)cc2)c1=O [US20260062376, Compound 7]",229 nM
7,"O=c1c(NCCc2cccc(F)c2)c(Nc2ccc(Cl)cc2)c1=O [US20260062376, Compound 25]",240 nM
8,"CN(C)c1cccc(CCNc2c(Nc3ccc(Cl)cc3)c(=O)c2=O)c1 [US20260062376, Compound 26]",1100 nM
9,"CN(C)c1ccc(CCNc2c(Nc3ccc(Cl)cc3)c(=O)c2=O)cc1 [US20260062376, Compound 27]",40.7 nM
10,"O=c1c(NCCc2ccc(Cl)c(Cl)c2)c(Nc2ccc(Cl)cc2)c1=O [US20260062376, Compound 41]",295 nM
11,"O=c1c(NCCc2ccccc2F)c(Nc2ccc(Cl)cc2)c1=O [US20260062376, Compound 24]",661 nM
12,"O=c1c(NCCc2ccccn2)c(Nc2ccc(Cl)cc2)c1=O [US20260062376, Compound 36]",1780 nM
13,"CCN(CC)c1ccc(CCNc2c(Nc3ccc(Cl)cc3)c(=O)c2=O)cc1 [US20260062376, Compound 48]",468 nM
14,"O=c1c(NCCc2ccc(Cl)cc2)c(Nc2ccc(Cl)cc2)c1=O [US20260062376, Compound 13]",275 nM
15,"Cc1ccccc1CCNc1c(Nc2ccc(Cl)cc2)c(=O)c1=O [US20260062376, Compound 35]",2690 nM
16,"O=c1c(NCCc2ccc(Cl)cc2Cl)c(Nc2ccc(Cl)cc2)c1=O [US20260062376, Compound 44]",525 nM
17,"Cc1cccc(CCNc2c(Nc3ccc(Cl)cc3)c(=O)c2=O)c1 [US20260062376, Compound 14]",166 nM
